The values that follow come from ChEMBL document CHEMBL1133871, “4-Aminopiperidine ureas as potent selective agonists of the human beta(3)-adrenergic receptor” (Bioorg Med Chem Lett, 2001).

Assay [1] deals with T1, Beta-3 adrenergic receptor (Homo sapiens, UniProt P13945). Nature of the assay: […] of cAMP accumulation level in CHO cells expressing human beta3-AR receptor at 10 uM concentration. Type of assay: functional, cell-based.
Target sequence in this assay (P13945 whole entry, looked up): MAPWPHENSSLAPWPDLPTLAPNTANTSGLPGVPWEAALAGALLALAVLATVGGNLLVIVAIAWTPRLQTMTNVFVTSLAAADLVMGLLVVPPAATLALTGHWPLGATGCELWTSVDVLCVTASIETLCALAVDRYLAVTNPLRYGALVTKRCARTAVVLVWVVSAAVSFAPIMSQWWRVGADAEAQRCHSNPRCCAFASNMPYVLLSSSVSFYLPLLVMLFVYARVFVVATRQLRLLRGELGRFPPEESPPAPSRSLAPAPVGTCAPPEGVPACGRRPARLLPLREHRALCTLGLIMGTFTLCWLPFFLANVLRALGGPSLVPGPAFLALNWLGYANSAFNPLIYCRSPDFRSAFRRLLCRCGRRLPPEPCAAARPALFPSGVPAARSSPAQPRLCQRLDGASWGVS
For assay [2], the target named is Beta-1 adrenergic receptor (Homo sapiens, UniProt P08588). Nature of the assay: In vitro agonistic activity assessed by measurement of cAMP accumulation level in CHO cells expressing human beta1-AR receptor. Type of assay: functional, cell-based. For orientation: Changes in cAMP serve as a functional read-out for many G protein-coupled receptors.
The target in assay [3] is T2, Adrenergic receptor beta (Homo sapiens, UniProt P08588+P07550+P13945). Nature of the assay: In vitro intrinsic activity is given as percentage of maximal stimulation relative to isoproterenol; Not active. Type of assay: functional.
Assay [4] deals with T1, Beta-3 adrenergic receptor. The assay is described as follows: In vitro intrinsic activity is given as percentage of maximal stimulation relative to isoproterenol; In active. Format: functional.
Target sequence in this assay (P13945 whole entry): as the sequence (P13945 whole entry, looked up) above
For assay [5], the target named is T1, Beta-3 adrenergic receptor. Nature of the assay: In vitro agonistic activity assessed by measurement of cAMP accumulation level in CHO cells expressing human beta3-AR receptor; In active. Format: functional, cell-based.
Target sequence in this assay (P13945 whole entry): as the sequence (P13945 whole entry, looked up) above
Assay [6] deals with T1, Beta-3 adrenergic receptor. The assay is described as follows: In vitro agonistic activity assessed by measurement of cAMP accumulation level in CHO cells expressing human beta3-AR receptor. Type of assay: functional, cell-based.
Target sequence in this assay (P13945 whole entry): as the sequence (P13945 whole entry, looked up) above
Assay [7] addresses T2, Adrenergic receptor beta. The assay is described as follows: In vitro agonistic activity against cAMP accumulation level in CHO cells expressing human beta-AR receptor. Format: functional, cell-based.

Structures are written as SMILES. Activity calls are given as the source filed them. No cut-off for these calls is given here.

As usually defined, the inhibition is the share of the control response that was lost under treatment. One may read the EC50 as the concentration giving half of the maximal effect.

Beta-1 adrenergic receptor, sequence (P08588 whole entry): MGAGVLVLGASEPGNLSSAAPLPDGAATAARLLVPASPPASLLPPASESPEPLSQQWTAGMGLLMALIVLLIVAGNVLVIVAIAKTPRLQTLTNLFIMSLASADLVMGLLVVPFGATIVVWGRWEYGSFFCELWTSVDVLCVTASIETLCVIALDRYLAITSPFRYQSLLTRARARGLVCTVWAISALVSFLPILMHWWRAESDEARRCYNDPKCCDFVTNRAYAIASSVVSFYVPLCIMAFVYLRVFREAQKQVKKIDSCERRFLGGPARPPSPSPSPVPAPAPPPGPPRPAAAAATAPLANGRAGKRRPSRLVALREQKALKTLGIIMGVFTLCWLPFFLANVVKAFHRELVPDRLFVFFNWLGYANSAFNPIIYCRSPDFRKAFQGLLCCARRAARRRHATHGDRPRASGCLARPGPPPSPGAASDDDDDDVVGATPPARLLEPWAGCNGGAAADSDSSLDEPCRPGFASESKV

`CCCCCCCCNC(=O)N1CCC(Nc2ccc(CCNC[C@H](O)c3ccc(O)c(C(N)=O)c3)cc2)CC1` had an Intrinsic activity in assay [1] of 42%.
For the molecule `CCCCCCCCNC(=O)N1CCC(Nc2ccc(CCNC[C@H](O)COc3ccc(F)cc3)cc2)CC1`, the inhibition in assay [1] worked out at 37%.
In assay [2], `CCCCCCCCNC(=O)N1CCC(Nc2ccc(CCNC[C@H](O)COc3ccc(O)c4c3CCC(=O)N4)cc2)CC1` gave a 50% effective concentration (EC50) of 88 nM.
With `O=C(NCCCC1CCCC1)N1CCC(Nc2ccc(CCNC[C@H](O)COc3ccc(O)cc3)cc2)CC1`, in assay [2], it took 187 nM to reach a half-maximal effect (EC50).
In assay [2], `CC(C)NC(=O)N1CCC(Nc2ccc(CCNC[C@H](O)COc3ccc(O)cc3)cc2)CC1` displayed an EC50 of 943 nM.
`O=C(NCc1ccc(Cl)cc1Cl)N1CCC(Nc2ccc(CCNC[C@H](O)COc3ccc(O)cc3)cc2)CC1` returned a 50% effective concentration (EC50) in assay [2] of 254 nM. For the same molecule, in assay [3], the Intrinsic activity result is “inactive”.
As to `O=C(NCc1cc(F)ccc1F)N1CCC(Nc2ccc(CCNC[C@H](O)COc3ccc(O)cc3)cc2)CC1`, in assay [2], the response was half-maximal at 522 nM (EC50). The Intrinsic activity entry in assay [3] was “inactive”.
Turning to `CCCCCCCCNC(=O)N1CCC(Nc2ccc(CCNC[C@H](O)COc3cccc4[nH]c(O)nc34)cc2)CC1`, the concentration for a half-maximal effect (EC50) entry in assay [4] and in assay [5] was “Not Active” each time.
On to `CNC(=O)N1CCC(Nc2ccc(CCNC[C@H](O)COc3ccc(O)cc3)cc2)CC1`, for which the 50% effective concentration (EC50) in assay [2] was 350 nM.
`O=C(NCc1c(F)cccc1F)N1CCC(Nc2ccc(CCNC[C@H](O)COc3ccc(O)cc3)cc2)CC1`: the half-maximal effective concentration (EC50) in assay [2] stood at 750 nM. The Intrinsic activity entry in assay [3] was “inactive”.
In the case of `CCCCCCCCNC(=O)N1CCC(Nc2ccc(CCNC[C@H](O)COc3ccc(O)cc3)cc2)CC1`, the half-maximal effective concentration (EC50) was found to be 610 nM in assay [2] and 8 nM in assay [6].
Take `O=C(NCc1ccc(F)cc1F)N1CCC(Nc2ccc(CCNC[C@H](O)COc3ccc(O)cc3)cc2)CC1`: the concentration for a half-maximal effect (EC50) in assay [2] was determined as 460 nM. Besides, in assay [3], the Intrinsic activity entry was “inactive”.
For the molecule `CS(=O)(=O)Nc1cc(OC[C@@H](O)CNCCc2ccc(NC3CCN(C(=O)NCc4cc(F)ccc4F)CC3)cc2)ccc1O`, the EC50 in assay [2] amounted to 423 nM.
`CCN(CC)C(=O)N1CCC(Nc2ccc(CCNC[C@H](O)COc3ccc(O)cc3)cc2)CC1`: the EC50 in assay [2] worked out at 164 nM.
As for `NC(=O)N1CCC(Nc2ccc(CCNC[C@H](O)COc3ccc(O)cc3)cc2)CC1`, the half-maximal effective concentration (EC50) in assay [2] is 511 nM.
As to `CS(=O)(=O)Nc1cc([C@@H](O)CNCCc2ccc(NC3CCN(C(=O)NCc4cc(F)ccc4F)CC3)cc2)ccc1O`, the results for the EC50 in assay [2] and in assay [7] were 2640 nM and 10 nM, respectively.
In assay [2], `O=C(NC1CCCCC1)N1CCC(Nc2ccc(CCNC[C@H](O)COc3ccc(O)cc3)cc2)CC1` returned an EC50 of 85 nM.
With `O=C(NCc1ccc(F)cc1)N1CCC(Nc2ccc(CCNC[C@H](O)COc3ccc(O)cc3)cc2)CC1`, the EC50 in assay [2] is 109 nM; in assay [6], 41 nM.
For the molecule `O=C(NCc1ccccc1F)N1CCC(Nc2ccc(CCNC[C@H](O)COc3ccc(O)cc3)cc2)CC1`, the EC50 in assay [2] came to 260 nM. Also, in assay [3], the Intrinsic activity entry is “inactive”.
